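96-well plates; 48 h exposure; 5 concentrations. Endpoints by linear interpolation between flanking doses. Not reached: highest tested concentration assigned. Definition used: TGI = concentration required for complete inhibition of growth.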 Where a SMILES comes first, the peptide text is derived from it. Bridges are numbered along the chain shown (N, C = ends). [ ]: non-standard residue; d: D form. The star is where a group is joined. Cbz = O=C(OCc1ccccc1)*; Aib = CC(C)(N)C(=O)O; OBn = c1ccc(CO*)cc1; βAla = NCCC(=O)O
What follows are compounds tested on RPMI-8226 leukemia (assay: DTP human tumour cell line panel, 48 h).
For `CCOC(=O)C(=C(SC)SC)c1nn2c(=O)cc(C)nc2s1`, the TGI was 41.3 µM. `CCCN=C(NC(=O)c1ccc(Cl)cc1)SC` gave a TGI greater than 100 µM. `COc1ccc(-c2c(C#N)c(NC(=S)NC(=O)c3ccccc3)nc3c2CCCC3)cc1OC` showed a TGI greater than 100 µM. Work on `Cc1c(Cc2ccccc2)n(COCCCO)c(=O)[nH]c1=O` yielded a TGI greater than 100 µM. Work on `CC1(C)NC(=O)C(NC(=O)C(CC(=O)OCc2ccccc2)NC(=O)OCc2ccccc2)CCCCNC(=O)CCNC1=O` (stereo not drawn) (Cbz-D(OBn)K[Aib][βAla]; lactam 2-C; configuration not given here) yielded a TGI greater than 100 µM. Compound `c1ccc2c(c1)nc1n2CNCC1` has a TGI greater than 100 µM.

Each compound was assayed on DU-145 prostate (assay: DTP human tumour cell line panel, 48 h).
Work on `CC(=O)OC[C@H]1[C@@H]2C(CC[C@]13CO3)OC(=O)CC(C)[C@]2(C)CCc1ccoc1` (stereo partly drawn) yielded a TGI greater than 100 µM. With `CCOC(=O)C(=C(SC)SC)c1nn2c(=O)cc(C)nc2s1` the TGI was 30.1 µM. In the case of `CCCN=C(NC(=O)c1ccc(Cl)cc1)SC`, the TGI is reported as greater than 100 µM. In the case of `COc1ccc(-c2c(C#N)c(NC(=S)NC(=O)c3ccccc3)nc3c2CCCC3)cc1OC`, the TGI is reported as greater than 100 µM. With `Cc1c(Cc2ccccc2)n(COCCCO)c(=O)[nH]c1=O` the TGI was greater than 100 µM. `CC1(C)NC(=O)C(NC(=O)C(CC(=O)OCc2ccccc2)NC(=O)OCc2ccccc2)CCCCNC(=O)CCNC1=O` (stereo not drawn) (Cbz-D(OBn)K[Aib][βAla]; lactam 2-C; configuration not given here) showed a TGI greater than 100 µM. `c1ccc2c(c1)nc1n2CNCC1` gave a TGI greater than 100 µM.

What follows are compounds tested on CAKI-1 renal (assay: DTP human tumour cell line panel, 48 h).
Compound `CC(=O)OC[C@H]1[C@@H]2C(CC[C@]13CO3)OC(=O)CC(C)[C@]2(C)CCc1ccoc1` (stereo partly drawn) has a TGI greater than 100 µM. `CCOC(=O)C(=C(SC)SC)c1nn2c(=O)cc(C)nc2s1` showed a TGI of 60.1 µM. In the case of `CCCN=C(NC(=O)c1ccc(Cl)cc1)SC`, the TGI is reported as greater than 100 µM. Compound `COc1ccc(-c2c(C#N)c(NC(=S)NC(=O)c3ccccc3)nc3c2CCCC3)cc1OC` has a TGI greater than 100 µM. For `Cc1c(Cc2ccccc2)n(COCCCO)c(=O)[nH]c1=O`, the TGI was greater than 100 µM. `CC1(C)NC(=O)C(NC(=O)C(CC(=O)OCc2ccccc2)NC(=O)OCc2ccccc2)CCCCNC(=O)CCNC1=O` (stereo not drawn) (Cbz-D(OBn)K[Aib][βAla]; lactam 2-C; configuration not given here) showed a TGI greater than 100 µM. `c1ccc2c(c1)nc1n2CNCC1` gave a TGI greater than 100 µM.

Each compound was assayed on SK-MEL-28 melanoma (assay: DTP human tumour cell line panel, 48 h).
With `CC(=O)OC[C@H]1[C@@H]2C(CC[C@]13CO3)OC(=O)CC(C)[C@]2(C)CCc1ccoc1` (stereo partly drawn) the TGI was greater than 100 µM. Compound `CCOC(=O)C(=C(SC)SC)c1nn2c(=O)cc(C)nc2s1` has a TGI of 31.3 µM. Work on `CCCN=C(NC(=O)c1ccc(Cl)cc1)SC` yielded a TGI greater than 100 µM. In the case of `COc1ccc(-c2c(C#N)c(NC(=S)NC(=O)c3ccccc3)nc3c2CCCC3)cc1OC`, the TGI is reported as greater than 100 µM. Compound `Cc1c(Cc2ccccc2)n(COCCCO)c(=O)[nH]c1=O` has a TGI greater than 100 µM. `CC1(C)NC(=O)C(NC(=O)C(CC(=O)OCc2ccccc2)NC(=O)OCc2ccccc2)CCCCNC(=O)CCNC1=O` (stereo not drawn) (Cbz-D(OBn)K[Aib][βAla]; lactam 2-C; configuration not given here) showed a TGI greater than 100 µM. Compound `c1ccc2c(c1)nc1n2CNCC1` has a TGI greater than 100 µM.

What follows are compounds tested on RXF 393 renal (assay: DTP human tumour cell line panel, 48 h).
Compound `CC(=O)OC[C@H]1[C@@H]2C(CC[C@]13CO3)OC(=O)CC(C)[C@]2(C)CCc1ccoc1` (stereo partly drawn) has a TGI greater than 100 µM. `CCOC(=O)C(=C(SC)SC)c1nn2c(=O)cc(C)nc2s1` was tested, and the TGI was 47.5 µM. Work on `CCCN=C(NC(=O)c1ccc(Cl)cc1)SC` yielded a TGI greater than 100 µM. `COc1ccc(-c2c(C#N)c(NC(=S)NC(=O)c3ccccc3)nc3c2CCCC3)cc1OC` gave a TGI of 68.1 µM. `Cc1c(Cc2ccccc2)n(COCCCO)c(=O)[nH]c1=O` showed a TGI greater than 100 µM. `CC1(C)NC(=O)C(NC(=O)C(CC(=O)OCc2ccccc2)NC(=O)OCc2ccccc2)CCCCNC(=O)CCNC1=O` (stereo not drawn) (Cbz-D(OBn)K[Aib][βAla]; lactam 2-C; configuration not given here) showed a TGI greater than 100 µM. Compound `c1ccc2c(c1)nc1n2CNCC1` has a TGI greater than 100 µM.

The compounds below were run on SW-620 colon (assay: DTP human tumour cell line panel, 48 h).
With `CC(=O)OC[C@H]1[C@@H]2C(CC[C@]13CO3)OC(=O)CC(C)[C@]2(C)CCc1ccoc1` (stereo partly drawn) the TGI was greater than 100 µM. In the case of `CCOC(=O)C(=C(SC)SC)c1nn2c(=O)cc(C)nc2s1`, the TGI is reported as 41.3 µM. Compound `CCCN=C(NC(=O)c1ccc(Cl)cc1)SC` has a TGI greater than 100 µM. In the case of `COc1ccc(-c2c(C#N)c(NC(=S)NC(=O)c3ccccc3)nc3c2CCCC3)cc1OC`, the TGI is reported as greater than 100 µM. `Cc1c(Cc2ccccc2)n(COCCCO)c(=O)[nH]c1=O` showed a TGI greater than 100 µM. With `CC1(C)NC(=O)C(NC(=O)C(CC(=O)OCc2ccccc2)NC(=O)OCc2ccccc2)CCCCNC(=O)CCNC1=O` (stereo not drawn) (Cbz-D(OBn)K[Aib][βAla]; lactam 2-C; configuration not given here) the TGI was greater than 100 µM. `c1ccc2c(c1)nc1n2CNCC1` showed a TGI greater than 100 µM.

These compounds were tested on A498 renal (assay: DTP human tumour cell line panel, 48 h).
`CC(=O)OC[C@H]1[C@@H]2C(CC[C@]13CO3)OC(=O)CC(C)[C@]2(C)CCc1ccoc1` (stereo partly drawn) showed a TGI greater than 100 µM. `CCCN=C(NC(=O)c1ccc(Cl)cc1)SC` was tested, and the TGI was 99.8 µM. With `Cc1c(Cc2ccccc2)n(COCCCO)c(=O)[nH]c1=O` the TGI was greater than 100 µM. Compound `CC1(C)NC(=O)C(NC(=O)C(CC(=O)OCc2ccccc2)NC(=O)OCc2ccccc2)CCCCNC(=O)CCNC1=O` (stereo not drawn) (Cbz-D(OBn)K[Aib][βAla]; lactam 2-C; configuration not given here) has a TGI greater than 100 µM. `c1ccc2c(c1)nc1n2CNCC1` was tested, and the TGI was greater than 100 µM.

These compounds were tested on SR leukemia (assay: DTP human tumour cell line panel, 48 h).
In the case of `CC(=O)OC[C@H]1[C@@H]2C(CC[C@]13CO3)OC(=O)CC(C)[C@]2(C)CCc1ccoc1` (stereo partly drawn), the TGI is reported as greater than 100 µM. Work on `CCOC(=O)C(=C(SC)SC)c1nn2c(=O)cc(C)nc2s1` yielded a TGI of 61.3 µM.

Reference: PubChem BioAssay (NCI)
